Like-named read-outs stand apart in the source and are kept apart here.
Columns and labels:
[1] = measurement wavelength vicinity of 525 nm; value in document; cited from earlier work
[2] = Two-photon absorption cross-sectional area by Z scanning method; type: physicochemical; conditions: measurement wavelength 550 nm; chloroform solution 1×10^−3
Method: Measurement of a two-photon absorption cross-sectional area of the synthesized compound is carried out by Z scanning method described in Mansoor Sheik-Baha et al., IEEE, Journal of Quantum Electronics, 1990, 26, 760. Z scanning method is a widely used method as the measuring method of a non-linear optical constant. In the vicinity of the focus of converged laser beam, a measuring sample is moved along the beam and the change of the quantity of transmitting light is recorded. Since the power density of incident light changes depending upon the position of a sample, the quantity of transmitting light attenuates in the vicinity of the focus in the case where non-linear absorption is present. A two-photon absorption cross-sectional area is computed by fitting the change of the quantity of transmitting light to the theoretical curve predictable from the intensity of incident light, the size of converging spot of light, the thickness of a sample and the concentration of a sample. As the light sources for the measurement of a two-photon absorption cross-sectional area, a Ti-sapphire pulse laser (pulse duration: 100 fs, repetition: 80 MHz, average output: 1 W, peak power: 100 kW) obtained by combining a […] amplifier and light parametric amplifier is used. […]

[3] = Evaluation of solubility of two-photon absorption compound; type: physicochemical; conditions: coating solvent dichloromethane
Method: The solubility of the compounds of the invention D-11, D-41 and D-405 and comparative compound R-2 in dichloromethane and 2-butanone is evaluated.

Row | SMILES | Two-Photon Absorption Cross-Sectional Area [1] [GM] | Two-Photon Absorption Cross-Sectional Area [2] [GM] | Solubility (in words) [3]
1 | CCCCCCC(CCCC)Oc1ccc(-c2ccc(-c3ccc(-c4ccc(OC(CCCC)CCCCCC)cc4)cc3)cc2)cc1 (stereo not drawn) [Compound R-1] | 15 |  | 
2 | N#Cc1ccc(-c2ccc(-c3ccc(-c4ccc(C(=O)c5ccccc5)cc4)cc3)cc2)cc1 [Compound R-2] |  | 200 | small in solubility
